US20090054529A1, “Flow Path Conditioner System” (priority 2005, published 2009)

System: E coli (ATCC 25922, MRI EC 13) and Pseudomonas aeruginosa (ATCC 9027, MRI Ps 10)
Assay: Example 4 summary of the 62 test samples (both cultures pooled)
Assay type: cell-based
Conditions: aqueous mixtures of up to 20% v/v; Example 4 text summary
Description: Freshly cultivated cultures of E coli (ATCC 25922, MRI EC 13) and Pseudomonas aeruginosa (ATCC 9027, MRI Ps 10) were suspended in MHB (Mueller-Hinton Broth) nutrient broth at 10^8 cfu/ml (colony-forming units per milliliter), diluted about 1:10 in peptone nutrient broth to about 10^7 cfu/ml. About 1 ml of each of the diluted cultures was added to one each of 9 ml of the corresponding test solutions described below for 5.0 minutes and then diluted in two steps of 1:10 per step. 100 microliters of such diluted culture was then plated onto a conventional nutrient agar plate. Nutrient agar plates were incubated by conventional methods and the number of colonies present on each plate were counted. Positive controls combined freshly cultivated cultures above described with peptone broth were included in each test group and numbers of colonies in control plates were used as a reference.
Now referring to Table 4, the results of combining each test solution as described above with each of the E coli (ATCC 25922, MRI EC 13) and Pseudomonas aeruginosa (ATCC 9027, MRI Ps 10) cultures are summarized using the following quantitative nomenclature: […]

CCO [ethanol]
effectiveness in reducing microorganisms: do not appear to be effective

CO [methanol]
effectiveness in reducing microorganisms: do not appear to be effective
